This note sets out measurements from article PMC9477487, “Multitarget drugs as potential therapeutic agents for alzheimer’s disease. A new family of 5-substituted indazole derivatives as cholinergic and BACE1 inhibitors” (Journal of Enzyme Inhibition and Medicinal Chemistry, 2022).

The target in data set [1] is T1, AChE from human erythrocytes (Homo sapiens, UniProt P22303).
T1 construct: AChE from human erythrocytes (EC 3.1.1.7); purchased Sigma; host or cells: human erythrocytes (tissue-derived)
Description: In vitro AChE inhibition assay (Ellman). The data set is classed as biochemical. As to conditions: for inhibition at 10 µM: 10 µM compound, read-out: AChE percentage of inhibition at 10 µM; for IC50: mean ± SEM, 3 experiments, acetylthiocholine substrate. Here is the method: (§1) AChE from human erythrocytes (EC 3.1.1.7) (min. 500 units/mg protein in buffered aqueous solution) and BuChE from human serum (EC 3.1.1.8) (3 units/mg protein, lyophilised powder) were purchased from Sigma.
(§2) Compounds were evaluated in 100 mM phosphate buffer pH 8.0 at 30 °C, using acetylthiocholine and butyrylthiocholine (0.4 mM) as substrates, respectively. In both cases, 5,5-dithio-bis(2-nitrobenzoic) acid (DTNB, Ellman’s reagent, 0.2 mM) was used and the values of IC50 were calculated by UV spectroscopy from the absorbance changes at 412 nm. Experiments were performed in triplicate.
A general note: DTNB colorimetry detects thiols as they appear.

Another data set deals with T2, BuChE from human serum (Homo sapiens, UniProt P06276).
T2 construct: BuChE from human serum (EC 3.1.1.8); purchased Sigma; host or cells: human serum (tissue-derived)
Description: In vitro BuChE inhibition assay (Ellman). To be noted: mean ± SEM, 3 experiments, butyrylthiocholine substrate. The class given is biochemical. On the procedure:
as §1, §2

The target of another data set is T3, BuChE (Homo sapiens, UniProt P06276).
T3 construct: BuChE from human serum (EC 3.1.1.8); purchased Sigma; host or cells: human serum (tissue-derived)
In words: Kinetic study of BuChE inhibition (Lineweaver-Burk plots). The class given is biochemical. Details: key to Type of Inhibition (BuChE): M: mixed. On the procedure: To investigate the mechanism of action of the compounds on AChE or BuChE, a kinetic analysis was performed. The experiments were carried out using combinations of four substrate concentrations and three inhibitor concentrations. Double-reciprocal Lineweaver–Burk plots of the data obtained, in which each point is the mean of three different experiments, were analysed.
Competitive inhibitors have the same y-intercept as uninhibited enzymes (since Vmax is unaffected by competitive inhibitors the inverse of Vmax also doesn’t change), but there are different slopes and x-intercepts. Non-competitive inhibition produces plots with the same x-intercept as uninhibited enzyme (Km is unaffected) but different slopes and y-intercepts. Uncompetitive inhibition causes different intercepts on both the y- and x-axes, but the same slope. Mixed inhibitors cause intersects above or below the x-axes.
The Ki, values were determined by fitting the kinetic data to a competitive, non-competitive, or mixed inhibition model by nonlinear regression analysis using GraphPad Prism[35].

In a further data set the target is T4, BACE1 (Homo sapiens, UniProt P56817).
T4 construct: purchased Invitrogen
In words: BACE1 enzymatic FRET assay. To be noted: pH 4.5, mean ± SEM. The class given is biochemical. Here is the method: The BACE1 ([…]) assay was carried out according to the manufacturer’s described protocol which is available from Invitrogen[36].
Briefly, BACE1 in vitro assays were carried out using fluorescence resonance energy transfer (FRET). An APP-based peptide substrate (rhodamine-EVNLDAEFK-quencher, Km of 20 μM) carrying the Swedish mutation and containing rhodamine as a fluorescence donor and a quencher acceptor at each end was used. The intact substrate is weakly fluorescent and becomes highly fluorescent upon enzymatic cleavage. The assays were conducted in 50 mM sodium acetate buffer, pH 4.5, at a final enzyme concentration of 1 U/mL. Inhibitor screening was performed at 10 μM. The mixture was incubated for 60 min at 25 °C under dark conditions and then stopped with 2.5 M sodium acetate. Fluorescence was measured with a FLUOstar Optima (BMG Labtechnologies GmbH, Offenburg, Germany) microplate reader at 545 nm excitation and 585 nm emission. The assay kit was validated by the manufacturer.

Data set [2] can be described thus: Oxygen radical absorbance capacity assay (ORAC-FL). To be noted: pH 7.4. On the procedure: The ORAC-FL method of Ou et al.[37], partially modified by Dávalos et al.[38], was followed, using a FLUOstar Optima (BMG Labtechnologies GmbH, Offenburg, Germany) with 485 excitation and 520 emission filters. 2,2′-Azobis-(amidinopropane) dihydrochloride (AAPH), (±)-6-hydroxy-2,5,7,8-tetramethylchromane-2-carboxylic acid (trolox) and fluorescein (FL) were purchased from Sigma-Aldrich. The reaction was carried out in 75 mM phosphate buffer (pH 7.4) and the final reaction mixture was 200 µL. […] The mixture was pre-incubated for 30 min at 37 °C and then AAPH solution (25 µL, 240 mM) was added rapidly using a multichannel pipette. The microplate was immediately placed in the reader and the fluorescence was recorded every 90 s. for 90 min. The microplate was automatically shaken prior to each reading. Samples were measured at four different concentrations (10^−1 µM). A blank (FL + AAPH in phosphate buffer) instead of the sample solution and four calibration solutions using trolox (10^−1 µM) was also used in each assay. All of the reaction mixtures were prepared in duplicate and at least three independent assays were performed for each sample. Raw data were exported from the Fluostar optima Software to an Excel sheet for further calculations. Antioxidant curves (fluorescence vs. time) were represented and the area under the curve (AUC) is calculated as: AUC =f1/f0+fi/f0+ … +f34/f0+ (f35/f0) where fo = initial fluorescence reading at 0 min and fi = fluorescence reading at time i. The net AUC is obtained by subtracting the AUC of the blank from that of a sample. The relative Trolox equivalent ORAC value is calculated as: Relative ORAC value =[(AUC sample - AUC blank)/(AUCT rolox - AUC blank)](molarity of trolox/molarity of sample)

Data set [3] deals with Raw 264.7 cells. In words: Cell viability (MTT) of Raw 264.7 cells. The data set is classed as cell-based. On the procedure:
(§3) Cell viability was measured using the 3-(4,5-Dimethylthiazol-2-yl)-2,5-diphenyltetrazolium bromide (MTT) assay, based on the ability of viable cells to reduce yellow MTT to blue formazan. Briefly, cells cultured in 96-well plates and treated with the indicated compounds for 16 h were incubated with MTT (0.5 mg/ml, 4 h) and subsequently solubilised in DMSO. The extent of reduction of MTT was quantified by absorbance measurement at 595 nm according to the manufacturer’s protocol.

The subject of data set [4] is SH-SY5Y human neuroblastoma cells. Description: Amyloid-beta peptide neurotoxicity, neuroprotection in SH-SY5Y cells (MTT). The class given is cell-based. As to conditions: 24 h. On the procedure:
SH-SY5Y human neuroblastoma cells were obtained from American Type Culture Collection. Cells were maintained at 37 °C in a 5% CO2 humidified atmosphere in DMEM-Glutamax supplemented with heat-inactivated 10% foetal bovine serum and 1% penicillin/streptomycin. All experiments with Aβ1–42 used DMEM-Glutamax without phenol in the media.
The compounds were dissolved in 100% dimethyl sulphoxide (DMSO) as a 10 mM stock and diluted with culture medium to final concentrations. Aβ1–42 powder (AnaSpec, Inc., San Jose, CA) was dissolved in acetic acid (0.1 M) obtaining a 2 μg/μL stock. Then Aβ1-42 was oligomerised in no phenol red DMEM for 24 h at 37 °C. The final concentration in cells cultures was 5 μM. All dilutions of stock were prepared fresh before addition to the culture medium.
SH-SY5Y cells were treated with 5 μM Aβ1-42 for 24 h and pre-treated or not for 1 h with increasing concentrations of compounds. After treatment, cultures were processed for a cell viability assay using MTT assay.
as §3

The subject of data set [5] is Raw 264.7 cells. In words: Nitrite determination (Griess) in LPS-stimulated Raw 264.7 cells. The data set is classed as cell-based, murine. To be noted: LPS 0.4 µg/mL, 24 h. Here is the method:
The content of nitrite, one of the end-products of NO oxidation, was monitored by a procedure based on the diazotidation of nitrite by sulphanilic acid (Griess reaction). Twenty-four hours after the incubation of Raw 264.7 cells with 0.4 µg/mL of LPS, 50 µL of sample aliquots were mixed with 50 µL of Griess reagent in 96-well plates and incubated at room temperature for 15 min. The absorbance (520 nm) of the mixture was measured on a microplate reader. The concentration of nitrite was calculated with the linear equation derived from the standard curve generated by known concentrations of sodium nitrite.

The mark [6] stands for this setting: 10 µM compound added 1 h prior to 5 µM Aβ.

T1 sequence (P22303 32-617 isoform P22303-2 limits assumed): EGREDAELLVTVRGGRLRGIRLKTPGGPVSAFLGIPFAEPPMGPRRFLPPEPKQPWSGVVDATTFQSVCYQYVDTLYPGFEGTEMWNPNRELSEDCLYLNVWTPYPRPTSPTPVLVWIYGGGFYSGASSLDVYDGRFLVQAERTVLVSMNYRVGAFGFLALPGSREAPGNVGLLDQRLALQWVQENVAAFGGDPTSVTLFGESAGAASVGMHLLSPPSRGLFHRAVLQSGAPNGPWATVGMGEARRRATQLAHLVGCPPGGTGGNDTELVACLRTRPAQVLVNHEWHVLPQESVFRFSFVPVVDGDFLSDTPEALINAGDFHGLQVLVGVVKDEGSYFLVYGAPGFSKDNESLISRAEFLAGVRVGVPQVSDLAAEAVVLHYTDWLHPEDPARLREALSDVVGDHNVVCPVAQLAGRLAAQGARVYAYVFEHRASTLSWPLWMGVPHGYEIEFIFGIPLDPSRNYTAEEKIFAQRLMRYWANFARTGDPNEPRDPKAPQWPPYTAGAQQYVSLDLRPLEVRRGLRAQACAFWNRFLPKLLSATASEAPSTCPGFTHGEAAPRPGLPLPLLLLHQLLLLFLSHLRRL
T4 sequence (P56817 46-501): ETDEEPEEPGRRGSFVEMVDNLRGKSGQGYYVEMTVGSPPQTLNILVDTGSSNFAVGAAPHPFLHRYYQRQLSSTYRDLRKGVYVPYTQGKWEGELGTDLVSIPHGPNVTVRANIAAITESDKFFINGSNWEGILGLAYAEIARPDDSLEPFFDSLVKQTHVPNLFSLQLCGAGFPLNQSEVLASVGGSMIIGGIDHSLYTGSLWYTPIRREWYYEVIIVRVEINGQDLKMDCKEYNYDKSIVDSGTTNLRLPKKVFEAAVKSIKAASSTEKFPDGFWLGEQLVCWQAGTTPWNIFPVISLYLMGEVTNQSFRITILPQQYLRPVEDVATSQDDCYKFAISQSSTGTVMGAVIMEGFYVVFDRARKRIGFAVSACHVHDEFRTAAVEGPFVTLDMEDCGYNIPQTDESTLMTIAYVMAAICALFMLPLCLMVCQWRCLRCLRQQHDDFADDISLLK
T2 sequence (P06276 29-602): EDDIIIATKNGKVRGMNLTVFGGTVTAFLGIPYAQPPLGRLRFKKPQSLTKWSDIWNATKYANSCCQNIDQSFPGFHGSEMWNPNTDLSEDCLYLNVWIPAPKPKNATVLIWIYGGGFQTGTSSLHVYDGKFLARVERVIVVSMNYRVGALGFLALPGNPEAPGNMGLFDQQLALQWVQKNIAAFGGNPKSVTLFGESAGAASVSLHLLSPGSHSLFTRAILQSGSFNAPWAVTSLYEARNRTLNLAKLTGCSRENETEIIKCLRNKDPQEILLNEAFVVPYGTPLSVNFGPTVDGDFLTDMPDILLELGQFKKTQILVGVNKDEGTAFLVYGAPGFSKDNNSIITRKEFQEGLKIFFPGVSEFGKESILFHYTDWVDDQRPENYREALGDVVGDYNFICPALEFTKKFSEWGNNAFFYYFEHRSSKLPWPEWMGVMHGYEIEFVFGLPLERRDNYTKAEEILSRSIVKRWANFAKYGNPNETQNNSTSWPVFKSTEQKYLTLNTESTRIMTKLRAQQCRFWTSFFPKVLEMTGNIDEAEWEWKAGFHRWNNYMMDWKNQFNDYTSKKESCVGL
T3 sequence (P06276 29-602): as above

What is called inhibition is the share of the control response that was lost under treatment. The IC50 is the concentration at which inhibition is half-maximal. Consider `c1ccc(Cn2nc(OCc3cccc4ccccc34)c3cc(NCCCN4CCCCC4)ccc32)cc1` [Compound 1], for which the inhibition at 10 µM in data set [1] was 23%. Further, the figures for the half-maximal inhibitory concentration (IC50) (in data set [1]; against BuChE from human serum; against BACE1) were above 10 µM, 3200 ± 500 nM and 2700 ± 100 nM, respectively. Besides, the “Type of Inhibition (BuChE)” value at BuChE is listed as “M”. Also, in data set [2], the “ORAC (Oxygen Radical Absorbance Capacity)” value (shortened to “ORAC”) is 1.1 ± 0.1 μmol of Trolox equivalents/μmol of tested compound. Also, the “Cytotoxicity on Raw 264.7 cells viability” value (“Cytotoxicity” below) in the data set with Raw 264.7 cells [3] (10 µM) was “show cytotoxicity”. In addition, in data set [4] (setting [6]), the “Aβ-induced death of SH-SY5Y cells” value is “significantly reduced cell death”.
As to `Clc1cccc(Cn2nc(OCc3ccccc3)c3cc(NCCCN4CCCCC4)ccc32)c1Cl` [Compound 2], the inhibition at 10 µM in data set [1] was 27%. Besides, the IC50 in data set [1] was above 10 µM; at BuChE from human serum it was 400 ± 40 nM; on BACE1, 3200 ± 200 nM. Moreover, at BuChE, the “Type of Inhibition (BuChE)” value was “M”. The “ORAC” value in data set [2] is 0.7 ± 0.1 μmol of Trolox equivalents/μmol of tested compound. Moreover, in the data set with Raw 264.7 cells [3] (10 µM), the “Cytotoxicity” value is “show cytotoxicity”. The “Aβ-induced death of SH-SY5Y cells” value in data set [4] (5 µM compound added 1 h prior to 5 µM Aβ) was “able to prevent cell death”.
`Clc1ccc(Cn2nc(OCc3cccc4ccccc34)c3cc(NCCCN4CCCCC4)ccc32)cc1Cl` [Compound 3]: the inhibition at 10 µM in data set [1] was 38%. In addition, the IC50 in data set [1] was above 10 µM; on BuChE from human serum it was 170 ± 50 nM; at BACE1, 2100 ± 200 nM. The “Type of Inhibition (BuChE)” value on BuChE is given as “M”. Further, the “ORAC” value in data set [2] is on record as 0.6 ± 0.1 μmol of Trolox equivalents/μmol of tested compound. Besides, in the data set on Raw 264.7 cells [5] (10 µM compound), the “LPS-induced NO production (extracellular nitrite)” value was “able to attenuate LPS-induced NO production”. In addition, in the data set on Raw 264.7 cells [3] (10 µM), the “Cytotoxicity” value is on record as “did not show any significant cytotoxic effect”. In data set [4] (setting [6]), the “Aβ-induced death of SH-SY5Y cells” value is given as “significantly reduced cell death”.
Turning to `Clc1ccc(Cn2nc(OCc3ccc4ccccc4c3)c3cc(NCCCN4CCCCC4)ccc32)cc1Cl` [Compound 4], in data set [1], the inhibition at 10 µM came to 26%. In addition, the figures for the IC50 (in data set [1]; against BuChE from human serum; at BACE1) were above 10 µM, 570 ± 200 nM and 1900 ± 100 nM, respectively. Also, the “Type of Inhibition (BuChE)” value on BuChE is listed as “M”. In addition, the “ORAC” value in data set [2] is given as 0.7 ± 0.1 μmol of Trolox equivalents/μmol of tested compound. In addition, in the data set on Raw 264.7 cells [3] (10 µM), the “Cytotoxicity” value is “show cytotoxicity”. Moreover, the “Aβ-induced death of SH-SY5Y cells” value in data set [4] (setting [6]) is recorded as “significantly reduced cell death”.
In the case of `c1ccc2cc(COc3nn(Cc4ccc5ccccc5c4)c4ccc(NCCCN5CCCCC5)cc34)ccc2c1` [Compound 6], the IC50 was 9 ± 1 µM in data set [1], 3700 ± 300 nM against BuChE from human serum and 3400 ± 200 nM at BACE1. The “Type of Inhibition (BuChE)” value on BuChE is “M”. Moreover, the “ORAC” value in data set [2] is recorded as 0 μmol of Trolox equivalents/μmol of tested compound. Also, the “LPS-induced NO production (extracellular nitrite)” value in the data set with Raw 264.7 cells [5] (10 µM compound) is reported as “able to attenuate LPS-induced NO production”; in the data set with Raw 264.7 cells [5] (20, 30 and 40 µM compound) it was “inhibited NO production”. In the data set on Raw 264.7 cells [3] (10, 20, 30, 40 µM), the “Cytotoxicity” value is given as “did not show any significant cytotoxic effect”. The “Aβ-induced death of SH-SY5Y cells” value in data set [4] (setting [6]) is reported as “significantly reduced cell death”.
